Key:
Assay in all cases: normalised response (% of control), CellTiter-Glo; higher = more viable cells (100 = DMSO, 0 = benzethonium chloride kill control)
Details in all cases: incubation time: 72 h
[1] = system: BT-474
Outline: (§1)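 A 20 µl suspension of breast cancer cells was seeded into each well of 384-well plates containing compound at 5 concentrations in 10-fold steps over a compound-specific 10,000-fold range. After 72 h incubation, CellTox Green fluorescence (485/520 nm) was read first, and CellTiter-Glo luminescence was read after 10 min at room temperature. Each plate was normalised against 0.1 % DMSO (100) and a positive kill control (0), and each value is the normalised signal at one concentration.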

[2] = system: BT-549
Outline: as §1

[3] = system: CAL-120
Outline: as §1

[4] = system: CAL-148
Outline: as §1

[5] = system: CAL-51
Outline: as §1

[6] = system: CAL-85-1
Outline: as §1

[7] = system: DU-4475
Outline: as §1

[8] = system: HCC1143
Outline: as §1

[9] = system: HCC1599
Outline: as §1

[10] = system: HCC1937
Outline: as §1

[11] = system: HDQ-P1
Outline: as §1

[12] = system: Hs578T
Outline: as §1

[13] = system: MCF-10A
Outline: as §1

[14] = system: MDA-MB-231
Outline: as §1

[15] = system: MDA-MB-436
Outline: as §1

[16] = system: MDA-MB-453
Outline: as §1

[17] = system: MDA-MB-468
Outline: as §1

[18] = system: MFM-223
Outline: as §1

[19] = system: SK-BR-3
Outline: as §1

| Compound | normalised response [1] [%] | normalised response [2] [%] | normalised response [3] [%] | normalised response [4] [%] | normalised response [5] [%] | normalised response [6] [%] | normalised response [7] [%] | normalised response [8] [%] | normalised response [9] [%] | normalised response [10] [%] | normalised response [11] [%] | normalised response [12] [%] | normalised response [13] [%] | normalised response [14] [%] | normalised response [15] [%] | normalised response [16] [%] | normalised response [17] [%] | normalised response [18] [%] | normalised response [19] [%] |
| --- | --- | --- | --- | --- | --- | --- | --- | --- | --- | --- | --- | --- | --- | --- | --- | --- | --- | --- | --- |
| C[C@]12CC[C@@H]3c4ccc(O)cc4C[C@@H](CCCCCCCCC[S+]([O-])CCCC(F)(F)C(F)(F)F)[C@H]3[C@@H]1CC[C@@H]2O (some centres undefined) [Fulvestrant] (0.1 nM) | 101 | 109 | 95.7 | 102 | 123 | 101 | 102 | 95.3 | 93.4 | 105 | 101 | 112 | 107 | 100 | 105 | 112 | 101 | 107 | 108 |
| CC1(C)NC(=O)N(c2ccc([N+](=O)[O-])c(C(F)(F)F)c2)C1=O [Nilutamide] (10 nM) | 105 | 105 | 97.9 | 112 | 127 | 96 | 109 | 101 | 113 | 101 | 95.6 | 99.1 | 110 | 102 | 110 | 103 | 93.3 | 112 | 117 |
| N#CCNC(=O)c1ccc(-c2ccnc(Nc3ccc(N4CCOCC4)cc3)n2)cc1 [Momelotinib] (1 nM) | 89.8 | 95.1 | 96.9 | 94.2 | 128 | 94.6 | 95.3 | 97.6 | 94.7 | 97.7 | 100 | 97.2 | 90.4 | 97.2 | 97.8 | 91.9 | 98.2 | 92.3 | 95.8 |
| O=C(O)c1ccc(-c2c[nH]c3ncc(-c4ccccc4)cc23)cc1C1CCCC1 (1 nM) | 95.4 | 103 | 94.8 | 96.5 | 125 | 98.4 | 97.3 | 97.5 | 83.8 | 91.1 | 93.7 | 98.3 | 89.7 | 94.2 | 92.8 | 99.3 | 92.9 | 94.5 | 89.6 |
| NC(=O)Nc1cc(-c2cccc(F)c2)sc1C(=O)N[C@H]1CCCNC1 [AZD7762] (1 nM) | 114 | 95.6 | 99.7 | 102 | 95.7 | 98.5 | 104 | 103 | 95.7 | 98.7 | 91.2 | 101 | 103 | 103 | 106 | 94.1 | 102 | 102 | 105 |
| Oc1nc(-c2ccc(C(F)(F)F)cc2)nc2c1CSCC2 [XAV-939] (10 nM) | 102 | 98.6 | 93.8 | 101 | 78.4 | 98.7 | 104 | 99.8 | 108 | 101 | 97.8 | 102 | 105 | 95.4 | 99.9 | 106 | 92.9 | 98.9 | 117 |
| Cc1ccc(C(=O)N(CCCN)[C@@H](c2oc3cc(Cl)ccc3c(=O)c2Cc2ccccc2)C(C)C)cc1 (0.01 nM) | 95.3 | 104 | 96.6 | 91.8 | 81.7 | 93.8 | 96.6 | 102 | 112 | 102 | 103 | 97.8 | 97.8 | 99 | 97.3 | 101 | 93 | 92.1 | 93.1 |
| N[C@@H](CSC(c1ccccc1)(c1ccccc1)c1ccccc1)C(=O)O [S-trityl-L-cysteine] (40 nM) | 96.7 | 99.2 | 102 | 97.5 | 131 | 104 | 101 | 92.7 | 109 | 93.8 | 119 | 94.3 | 105 | 90.4 | 103 | 95 | 98.5 | 107 | 97.5 |
| CCCCCCCCCCCCCCCCCCOP(=O)([O-])OC1CC[N+](C)(C)CC1 [Perifosine] (0.25 nM) | 99.4 | 107 | 108 | 99.2 | 102 | 96.5 | 92.7 | 103 | 113 | 98.8 | 106 | 108 | 101 | 99.6 | 116 | 105 | 99 | 92.3 | 92.3 |
| O=C(CCCCCCC(=O)Nc1ccc([C@H]2O[C@@H](CSc3nc(-c4ccccc4)c(-c4ccccc4)o3)C[C@@H](c3ccc(CO)cc3)O2)cc1)NO [Tubacin] (1 nM) | 94.2 | 100 | 96.1 | 97.6 | 119 | 92.4 | 100 | 98.9 | 93.5 | 93.3 | 94.6 | 100 | 92.8 | 97.5 | 82.1 | 103 | 91.5 | 96.8 | 101 |
| COc1cc2nccc(Oc3ccc(NC(=O)C4(C(=O)Nc5ccc(F)cc5)CC4)cc3)c2cc1OC [Cabozantinib] (1 nM) | 97.3 | 98.8 | 100 | 95.9 | 122 | 96.1 | 101 | 99.1 | 107 | 94.4 | 99.3 | 102 | 93.5 | 104 | 96.6 | 105 | 102 | 102 | 101 |
| O=C(CCCCCCC(=O)Nc1ccc([C@H]2O[C@@H](CSc3nc(-c4ccccc4)c(-c4ccccc4)o3)C[C@@H](c3ccc(CO)cc3)O2)cc1)NO [Tubacin] (10 nM) | 93.5 | 101 | 95.8 | 100 | 110 | 103 | 101 | 103 | 95.3 | 93.1 | 93 | 104 | 99.1 | 94.4 | 96 | 97.2 | 91.2 | 97.9 | 95.2 |
| CO[C@H]1/C=C\C=C(/C)C(=O)NC2=CC(=O)C(NCCN(C)C)=C(C[C@@H](C)C[C@H](OC)[C@H](O)[C@@H](C)/C=C(\C)[C@@H]1OC(N)=O)C2=O [Alvespimycin] (1 nM) | 120 | 95.6 | 100 | 112 | 112 | 97.8 | 105 | 97.5 | 102 | 91.6 | 102 | 101 | 106 | 102 | 104 | 113 | 107 | 105 | 105 |
| N#CCNC(=O)c1ccc(-c2ccnc(Nc3ccc(N4CCOCC4)cc3)n2)cc1 [Momelotinib] (10 nM) | 94.2 | 99.6 | 95.1 | 94.9 | 80.9 | 97.1 | 97.2 | 100 | 89.8 | 96.8 | 103 | 104 | 103 | 97.4 | 101 | 89.5 | 92.8 | 94.2 | 115 |
| C=C(c1ccc(C(=O)O)cc1)c1cc2c(cc1C)C(C)(C)CCC2(C)C [Bexarotene] (10 nM) | 99.8 | 97.1 | 101 | 106 | 137 | 107 | 101 | 101 | 96.3 | 94.6 | 106 | 97 | 99.4 | 100 | 100 | 101 | 104 | 107 | 98.8 |
| CCC1(c2ccc(N)cc2)CCC(=O)NC1=O (centres undefined) [Aminoglutethimide] (10 nM) | 105 | 95.2 | 100 | 100 | 151 | 105 | 104 | 108 | 97 | 99.3 | 97.5 | 97.3 | 103 | 104 | 95.4 | 90.2 | 101 | 101 | 98.7 |
| COc1cc2ncnc(Nc3ccc(F)c(Cl)c3)c2cc1NC(=O)/C=C/CN1CCCCC1 [Dacomitinib] (0.1 nM) | 99 | 102 | 94 | 109 | 71.8 | 97.5 | 95.3 | 107 | 93.7 | 104 | 99.8 | 98.5 | 101 | 102 | 102 | 99.9 | 101 | 102 | 99.6 |
| O=C1CCC(N2C(=O)c3ccccc3C2=O)C(=O)N1 (centres undefined) [Thalidomide] (10 nM) | 94 | 99.7 | 94.2 | 92.6 | 65.4 | 100 | 97.2 | 97.3 | 102 | 95.3 | 96.1 | 100 | 100 | 98.4 | 95.8 | 96.3 | 91.9 | 97.5 | 98.9 |
| O=P1(NCCCl)OCCCN1CCCl (centres undefined) [Ifosfamide] (10 nM) | 96.8 | 95.9 | 93.2 | 86.1 | 118 | 100 | 92.5 | 98.1 | 89.3 | 95.8 | 98 | 102 | 96.1 | 101 | 94 | 87.7 | 91.6 | 89.1 | 94.9 |
| CC(=O)Nc1ccc(C(=O)Nc2ccccc2N)cc1 [Tacedinaline] (0.1 nM) | 102 | 99.5 | 92.1 | 93.2 | 113 | 104 | 100 | 92.9 | 100 | 98.4 | 94.2 | 96.7 | 98.4 | 98.9 | 101 | 104 | 105 | 97.1 | 105 |
| CC(C)Cn1cnc2c(N)nc3ccccc3c21 [Imiquimod] (0.25 nM) | 102 | 99 | 96.5 | 99.6 | 96.8 | 103 | 104 | 99.2 | 99.2 | 97.1 | 94.2 | 99 | 111 | 101 | 99.6 | 109 | 91.9 | 100 | 110 |

Source: the supplement of paper PMC4862054
